The results in this text go back to US9346820B2, “HIV-1 protease inhibitors having gem-di-fluoro bicyclic P2-ligands” (priority 2013, dated 2016).

The test system of one data set is HIV-1LAI. Briefly: Antiviral activity of brain-side medium from the BBB assay, MTT assay in MT-2 cells. In kind it is cell-based. As to conditions: HIV-1LAI. The procedure: The “brain-side” of the medium containing a compound collected in the BBB in vitro assay, was subjected to antiviral assays. Two HIV-1 isolates were employed, HIV-1LAI (Panel A) and HIV-1ERS104pre (Panel B). […] Dilution ranges were between 10-fold and 10,000-fold, and the percentage of viral inhibition was used as an endpoint. […] Assays were conducted in duplicate and error bars show standard deviations.
The assay was carried out using 10, 100, 1000 and 10000 times-diluted brain-side stocks of compounds.
On the technique in general: Tetrazolium dyes change colour on reduction, which living cells bring about.

The subject of data set [1] is HIV-1GRL-04810^RP18, and HIV-1GRL-05010^RP10. Kind of data set: p24 assay, the two GRL-selected variants taken together. Type of data set: cell-based. As to conditions: Human immunodeficiency virus 1, read-out: EC50 values against HIV-1GRL-04810^RP18 and HIV-1GRL-05010^RP10. As for the experimental part: (§1) The susceptibility of HIV-1LAI to various drugs was determined as previously described with minor modifications. Briefly, MT-2 cells (10^4/ml) were exposed to 100 50% tissue culture infectious doses (TCID50) of HIV-1LAI in the presence or absence of various concentrations of drugs in 96-well microculture plates and were incubated at 37° C. for 7 days. After 100 μl of the medium was removed from each well, 3-(4,5-dimetylthiazol-2-yl)-2,5-diphenyltetrazolium bromide (MTT) solution (10 μl, 7.5 mg/ml in phosphate-buffered saline) was added to each well in the plate, followed by incubation at 37° C. for 2 h. […] All assays were performed in duplicate or triplicate. […] To determine the sensitivity of primary HIV-1 isolates to drugs, phytohemagglutinin-stimulated peripheral blood mononuclear cells (PHA-PBMC) (10^6/ml) were exposed to 50 TCID50 of each primary HIV-1 isolate and cultured in the presence or absence of various concentrations of drugs in 10-fold serial dilutions in 96-well microculture plates. In determining the drug susceptibility of certain laboratory HIV-1 strains, MT-4 cells were employed as target cells as previously described with minor modifications. In brief, MT-4 cells (10^5/ml) were exposed to 100 TCID50 of drug-resistant HIV-1 strains in the presence or absence of various concentrations of drugs and were incubated at 37° C. On day 7 of culture, the supernatants were harvested and the amounts of p24 Gag protein were determined by using a fully automated chemiluminescent enzyme immunoassay system (Lumipulse F: Fujirebio Inc., Tokyo). […] All assays were performed in duplicate or triplicate. PHA-PBMs were derived from a single donor in each independent experiment. Thus, for obtaining the data, three different donors were recruited.

Another data set relates to HIV-1GRL04810^RP18. Kind of data set: microbe, parasite or virus in culture. Type of data set: cell-based. As to conditions: Human immunodeficiency virus 1, MT4, read-out: EC50 HIV-1GRL04810^RP18. The procedure:
as §1
(§2) The amounts of p24 were measured every two days for up to 7 days.

Another data set concerns HIV-1GRL05010^RP10. Briefly: microbe, parasite or virus in culture. As to conditions: Human immunodeficiency virus 1, MT4, read-out: EC50 HIV-1GRL05010^RP10. Type of data set: cell-based. The procedure:
as §1, §2

Data set [2] in a line: Cytotoxicity (CC50), MTT assay. Type of data set: cell-based. As to conditions: human; 50% cytotoxicity; read-out: CC50. As for the experimental part:
The susceptibility of HIV-1LAI to various drugs was determined as previously described with minor modifications. Briefly, MT-2 cells (10^4/ml) were exposed to 100 50% tissue culture infectious doses (TCID50) of HIV-1LAI in the presence or absence of various concentrations of drugs in 96-well microculture plates and were incubated at 37° C. for 7 days. After 100 μl of the medium was removed from each well, 3-(4,5-dimetylthiazol-2-yl)-2,5-diphenyltetrazolium bromide (MTT) solution (10 μl, 7.5 mg/ml in phosphate-buffered saline) was added to each well in the plate, followed by incubation at 37° C. for 2 h. […] All assays were performed in duplicate or triplicate. […] In determining the drug susceptibility of certain laboratory HIV-1 strains, MT-4 cells were employed as target cells as previously described with minor modifications. In brief, MT-4 cells (10^5/ml) were exposed to 100 TCID50 of drug-resistant HIV-1 strains in the presence or absence of various concentrations of drugs and were incubated at 37° C. On day 7 of culture, the supernatants were harvested and the amounts of p24 Gag protein were determined by using a fully automated chemiluminescent enzyme immunoassay system (Lumipulse F: Fujirebio Inc., Tokyo). […] All assays were performed in duplicate or triplicate. PHA-PBMs were derived from a single donor in each independent experiment. Thus, for obtaining the data, three different donors were recruited.

Another data set has as its system HIV-1NL4-3. Kind of data set: p24 Gag production inhibition in MT-4 cells, wild-type laboratory strain. Type of data set: cell-based. As to conditions: Human immunodeficiency virus 1, MT4; MT-4 cells, p24 Gag endpoint; read-out: EC50 HIV-1NL4-3. As for the experimental part: as §1
In another data set the test system is HIV-1ERS104pre. Kind of data set: p24 Gag production inhibition in PHA-PBMs, wild-type clinical isolate. In kind it is cell-based. As to conditions: Human immunodeficiency virus 1; PHA-PBMs, p24 Gag endpoint; read-out: EC50 HIV-1ERS104pre (X4). As for the experimental part: (§3) All primary HIV-1 strains were passaged once or twice in 3-day-old phytohemagglutinin activated peripheral blood mononuclear cells (PHA-PBM), and the culture supernatants were stored at −80° C. until use.
as §1

The next data set deals with HIV-1MDR/MM. Kind of data set: microbe, parasite or virus in culture. In kind it is cell-based. As to conditions: Human immunodeficiency virus 1, read-out: EC50 HIV-1MDR/MM (R5). As for the experimental part: as §3, §1
The next data set deals with HIV-1MDR/C. Kind of data set: microbe, parasite or virus in culture. In kind it is cell-based. As to conditions: Human immunodeficiency virus 1, read-out: EC50 HIV-1MDR/C (X4). The procedure: as §3, §1
In the next data set the test system is HIV-1MDR/TM. Kind of data set: microbe, parasite or virus in culture. Type of data set: cell-based. As to conditions: Human immunodeficiency virus 1, read-out: EC50 HIV-1MDR/TM (X4). As for the experimental part: as §3, §1
The test system of a further data set is HIV-1MDR/B. Kind of data set: microbe, parasite or virus in culture. Type of data set: cell-based. As to conditions: Human immunodeficiency virus 1, read-out: EC50 HIV-1MDR/B (X4). As for the experimental part: as §3, §1
In another data set the test system is HIV-1MDR/JSL. Briefly: microbe, parasite or virus in culture. As to conditions: Human immunodeficiency virus 1, read-out: EC50 HIV-1MDR/JSL (R5). In kind it is cell-based. As for the experimental part:
as §3, §1

The next data set has as its system HIV-1MDR/G. Kind of data set: microbe, parasite or virus in culture. Type of data set: cell-based. As to conditions: Human immunodeficiency virus 1, read-out: EC50 HIV-1MDR/G (X4). As for the experimental part: as §3, §1
For a further data set, the system named is HIV-1APV^R5μM. Kind of data set: microbe, parasite or virus in culture. In kind it is cell-based. As to conditions: Human immunodeficiency virus 1, MT4, read-out: EC50 HIV-1APV^R5μM. As for the experimental part:
as §1

A further data set concerns HIV-1SQV^R5μM. Briefly: microbe, parasite or virus in culture. As to conditions: Human immunodeficiency virus 1, MT4, read-out: EC50 HIV-1SQV^R5μM. Type of data set: cell-based. As for the experimental part:
as §1

The subject of another data set is HIV-1LPV^R5μM. Kind of data set: microbe, parasite or virus in culture. Type of data set: cell-based. As to conditions: Human immunodeficiency virus 1, MT4, read-out: EC50 HIV-1LPV^R5μM. As for the experimental part:
as §1

Another data set concerns HIV-1ATV^R5μM. Kind of data set: microbe, parasite or virus in culture. In kind it is cell-based. As to conditions: Human immunodeficiency virus 1, MT4, read-out: EC50 HIV-1ATV^R5μM. As for the experimental part: as §1
For data set [3], the system named is triple culture of rat-derived astrocytes, pericytes and monkey-derived endothelial cells. Briefly: Apparent BBB permeability coefficient, in vitro BBB model (BBB Kit). As to conditions: 100 μM on luminal (blood) side, 30 min, brain side measured at 230 nm. The procedure: (§4) The BBB Kit™ was kept at −80° C. until thawing on day 0 of the experiments. Nutritional medium was added to both brain and blood sides of the wells. This solution consists of DMEM F-12 medium with FCS 10% v/v, heparin 100 μg/ml, basic fibroblast growth factor (bFGF) 1.5 ng/ml, insulin 5 μg/ml, transferrin 5 μg/ml, sodium selenite 5 ng/ml, hydrocortisone 500 nM and gentamycin 50 μg/ml. Fresh medium was added 3 hours after thawing following the manufacturer's instructions, and 24 hours later. The plates were incubated at 37° C. until day 4 of the experiment when the condition of astrocytes was checked under a light microscope. Following this, the integrity of the collagen-coated membrane was verified by the measurement of the transendothelial electrical resistance (TEER) using an ohmmeter provided by the manufacturer. […] Detailed information regarding the components of the BBB Kit as well as its mechanisms can be seen by accessing the manufacturer's website http://www.pharmacocell.co.jp/en/bbb/index_e.html.
(§5) Standard curves were generated for each compound on a light spectrophotometer as previously described. 100 μM of each compound was added to the luminal (blood side) of the wells, incubated at 37° C. for 30 minutes and then, the amount of drug that crossed the in vitro BBB was collected and measured under a light spectrophotometer at 230 nanometer absorbances.
(§6) Papp was calculated using the following mathematical formula: […]
(§7) This model (BBB Kit™) is thought to represent an in vitro BBB model for drug transport assays, permitting an adequate cross-talk of the cell lines involved and provide a way to test an apparent passage of small molecules across the BBB as previously described by Nakagawa et al. (41). […] The concentrations of each compound that permeated into the abluminal interface (termed “brain side”) were determined using a spectrophotometer, 30 min after the addition of each drug to the wells.
(§8) The mathematical formula used for the calculation of Papp is described in Materials and Methods.

Assay in data set [4]: as above
As to conditions: rat and monkey. As for the experimental part:
as §4, §5, §6, §7, §8

`CC(C)(C)NC(=O)[C@@H]1CN(Cc2cccnc2)CCN1C[C@@H](O)C[C@@H](Cc1ccccc1)C(=O)N[C@H]1c2ccccc2C[C@H]1O` [IDV, Indinavir]: in the data set with HIV-1LAI, the “suppression levels of brain-side preparations compared (FIG. 5A)” value is “less than those of GRL-04810^brain and GRL-05010^brain”.
Usually CC50 stands for the concentration at which the toxic effect on the cells reaches its halfway point. Consider `CC(C)CN(C[C@@H](O)[C@H](Cc1ccccc1)NC(=O)O[C@H]1CCOC1)S(=O)(=O)c1ccc(N)cc1` [APV, Amprenavir], for which the EC50 in data set [1] is over 1000 nM; in the data set on HIV-1GRL04810^RP18 it was over 1000 nM; with HIV-1GRL05010^RP10, over 1000 nM; in the data set on HIV-1NL4-3, 81 nM; in the data set on HIV-1ERS104pre, 29.5 nM; with HIV-1MDR/MM, 270 nM. Also, the EC50 in the data set on HIV-1MDR/C is 210 nM; with HIV-1MDR/TM, 328 nM; with HIV-1MDR/B, 490 nM; in the data set on HIV-1MDR/JSL, 630 nM; in the data set on HIV-1MDR/G, 310 nM; in the data set on HIV-1APV^R5μM, over 1000 nM. In addition, the EC50 in the data set with HIV-1SQV^R5μM is 435 nM; in the data set on HIV-1LPV^R5μM, 33 nM; in the data set on HIV-1ATV^R5μM, over 1000 nM. Also, the half-maximal cytotoxic concentration (CC50) at 7 days in data set [2] was over 100000 nM.
With `Cc1cccc(C)c1OCC(=O)N[C@@H](Cc1ccccc1)[C@@H](O)C[C@H](Cc1ccccc1)NC(=O)[C@H](C(C)C)N1CCCNC1=O` [LPV, Lopinavir], the half-maximal cytotoxic concentration (CC50) at 7 days in [2] was determined as 26800 ± 900 nM. The EC50 in the data set with HIV-1NL4-3 was 35 nM; with HIV-1ERS104pre it was 33 nM; in the data set on HIV-1MDR/JSL it was over 1000 nM; in the data set on HIV-1LPV^R5μM, over 1000 nM.
In general, Papp refers to the rate of passage across a membrane or cell layer, normalised by area and donor concentration. Turning to `Cn1c(=O)c2c(ncn2C)n(C)c1=O` [caffeine], in [3], the “Final abluminal tracer concentration” value stood at 6.60 µM. Besides, the Papp at 30 min, 100 μM in data set [4] was 100 ×10⁻⁶ cm/s.
